{"source": "paper PMC7701510", "about": "“Identification of HN252 as a potent inhibitor of protein phosphatase PPM1B” (Journal of Cellular and Molecular Medicine, 2020)", "key": {"[1]": {"molecular_target": "T1, PPM1B (Homo sapiens, UniProt O75688)", "T1 construct": "inferred from pET-28a vector and Ni-NTA purification; made in house; host or cells: Escherichia coli BL21", "T1 sequence (O75688 1-479)": "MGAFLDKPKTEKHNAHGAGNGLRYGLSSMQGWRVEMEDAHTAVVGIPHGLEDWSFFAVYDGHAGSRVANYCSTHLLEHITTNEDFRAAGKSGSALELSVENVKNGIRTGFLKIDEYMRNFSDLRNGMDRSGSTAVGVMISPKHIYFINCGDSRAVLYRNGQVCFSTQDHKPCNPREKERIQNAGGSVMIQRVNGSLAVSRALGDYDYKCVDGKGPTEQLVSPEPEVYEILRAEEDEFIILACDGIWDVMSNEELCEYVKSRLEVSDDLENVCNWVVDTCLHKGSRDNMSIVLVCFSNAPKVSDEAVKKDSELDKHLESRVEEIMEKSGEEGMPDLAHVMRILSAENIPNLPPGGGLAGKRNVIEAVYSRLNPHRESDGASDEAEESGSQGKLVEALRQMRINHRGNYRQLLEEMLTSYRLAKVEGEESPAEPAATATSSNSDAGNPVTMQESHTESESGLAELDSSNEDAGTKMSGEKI", "experiment": "Fluorescence quenching assay (fluorescence titration)", "assay_type": "binding", "conditions": "PPM1B 8 μM, 25°C, excitation 280 nm, emission 332 nm; read-out: dissociation constant Kd", "protocol": "The interaction between PPM1B recombinant proteins and compound HN252 was determined by fluorescence titration as previously described. ^20 PPM1B proteins were dialysed against PBS and incubated with different concentrations of HN252. The fluorescent quenching was conducted at 25°C, and fluorescence spectra were recorded by Cytation 5 Multi‐Mode Plate Reader (BioTek) using excitation at 280 nm and emission at 332 nm. The dissociation constant (Kd) of HN252 to PPM1B was calculated as previously described. ^20"}, "[2]": {"molecular_target": "T2, SSH1 (Homo sapiens, UniProt Q8WYL5)", "T2 sequence (Q8WYL5 1-1049)": "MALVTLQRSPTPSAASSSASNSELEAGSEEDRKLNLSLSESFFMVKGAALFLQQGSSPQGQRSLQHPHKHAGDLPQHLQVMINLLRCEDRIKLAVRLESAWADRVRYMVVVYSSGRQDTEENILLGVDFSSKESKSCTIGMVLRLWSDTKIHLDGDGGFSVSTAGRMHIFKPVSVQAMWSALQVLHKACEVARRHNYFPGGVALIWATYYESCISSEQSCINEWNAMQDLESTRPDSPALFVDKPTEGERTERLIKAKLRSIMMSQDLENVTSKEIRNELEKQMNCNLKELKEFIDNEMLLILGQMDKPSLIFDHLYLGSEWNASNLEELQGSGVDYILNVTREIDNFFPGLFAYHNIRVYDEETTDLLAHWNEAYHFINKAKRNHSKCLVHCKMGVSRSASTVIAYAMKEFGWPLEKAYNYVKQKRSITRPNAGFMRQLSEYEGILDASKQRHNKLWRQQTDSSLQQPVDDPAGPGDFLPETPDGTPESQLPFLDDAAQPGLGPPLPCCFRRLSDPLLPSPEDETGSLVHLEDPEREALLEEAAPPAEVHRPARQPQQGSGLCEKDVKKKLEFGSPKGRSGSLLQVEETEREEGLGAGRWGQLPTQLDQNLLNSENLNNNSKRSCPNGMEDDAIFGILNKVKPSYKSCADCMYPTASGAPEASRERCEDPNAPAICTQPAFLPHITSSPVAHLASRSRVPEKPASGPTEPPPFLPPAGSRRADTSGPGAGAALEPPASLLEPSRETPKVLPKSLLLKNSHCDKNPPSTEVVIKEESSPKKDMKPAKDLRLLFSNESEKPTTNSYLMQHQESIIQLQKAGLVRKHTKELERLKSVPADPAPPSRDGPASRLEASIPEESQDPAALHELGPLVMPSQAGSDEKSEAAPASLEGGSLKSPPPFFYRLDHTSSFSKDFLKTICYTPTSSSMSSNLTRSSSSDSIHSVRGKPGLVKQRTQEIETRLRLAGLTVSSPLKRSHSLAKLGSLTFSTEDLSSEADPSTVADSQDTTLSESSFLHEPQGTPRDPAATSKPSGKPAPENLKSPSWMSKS", "experiment": "pNPP hydrolysis phosphatase assay (selectivity panel)", "assay_type": "biochemical", "conditions": "pNPP as substrate", "protocol": "The kinetic assays of PPM1B were carried out at 37°C in 0.1 M acetic acid buffer (50 mM Tris, 40 mM Mn^2+, pH 7.0). The p‐nitrophenyl phosphate (pNPP, Sigma) was used as the substrate which could be conveniently measured at 405 nm. Reactions were started by addition of pNPP to a reaction mixture containing PPM1B (0.4 μM PPM1B, final concentration) and various concentrations of HN252 and stopped by addition of 0.5 M EDTA (pH 10.0) after an appropriate time. The Km value of PPM1B towards pNPP hydrolysis (3.6 mM for pNPP) was used to determine the IC50. The IC50 values, the inhibition constant Ki and inhibition pattern were evaluated as previously described. ^18 The kinetic assays of HN252 towards to other protein phosphatases were carried out as previously described. ^19"}, "[3]": {"molecular_target": "T3, LYP (Homo sapiens, UniProt Q9Y2R2)", "T3 sequence (Q9Y2R2 1-807)": "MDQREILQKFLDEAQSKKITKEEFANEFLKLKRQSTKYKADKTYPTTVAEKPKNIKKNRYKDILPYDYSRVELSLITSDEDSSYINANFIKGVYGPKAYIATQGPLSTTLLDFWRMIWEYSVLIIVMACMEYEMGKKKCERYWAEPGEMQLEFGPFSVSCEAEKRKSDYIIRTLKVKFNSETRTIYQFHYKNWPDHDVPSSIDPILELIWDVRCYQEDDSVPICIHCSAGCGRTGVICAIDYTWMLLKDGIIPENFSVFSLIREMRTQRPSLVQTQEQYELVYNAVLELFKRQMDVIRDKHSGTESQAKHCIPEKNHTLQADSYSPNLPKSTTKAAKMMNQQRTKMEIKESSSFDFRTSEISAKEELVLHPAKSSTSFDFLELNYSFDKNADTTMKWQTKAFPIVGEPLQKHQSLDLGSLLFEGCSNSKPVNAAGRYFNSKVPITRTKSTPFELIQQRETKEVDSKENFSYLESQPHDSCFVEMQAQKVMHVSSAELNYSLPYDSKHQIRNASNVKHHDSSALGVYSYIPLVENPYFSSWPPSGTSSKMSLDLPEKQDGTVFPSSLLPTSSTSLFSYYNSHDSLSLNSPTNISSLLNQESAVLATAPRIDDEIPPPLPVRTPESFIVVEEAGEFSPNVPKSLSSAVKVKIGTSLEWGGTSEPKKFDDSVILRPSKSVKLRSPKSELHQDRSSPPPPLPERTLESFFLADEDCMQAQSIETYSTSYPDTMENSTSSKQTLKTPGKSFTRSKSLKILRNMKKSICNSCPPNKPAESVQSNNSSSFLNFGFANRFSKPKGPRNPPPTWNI", "experiment": "pNPP hydrolysis phosphatase assay (selectivity panel)", "assay_type": "biochemical", "conditions": "pNPP as substrate"}}, "data": [{"smiles": "Nc1cc(-c2ccc(-c3ccc(O)c(O)c3)cc2)ccc1C(=O)O", "note": "[HN252]", "values": [{"measurement": "Kd", "setting": "[1]", "result": "42.3 ± 6.47", "unit": "µM"}, {"measurement": "IC50", "setting": "[2]", "result": "54.6 ± 13", "unit": "µM"}, {"measurement": "IC50", "setting": "[3]", "result": "98.2 ± 11.7", "unit": "µM"}]}]}
